The structures appear in SMILES notation.

The target in the assay is T1, interaction between VCAM-1 and VLA-4 (Homo sapiens, UniProt P05556+P13612).
T1 construct: supplied in their natural form as surface molecules on human U937 cells; host or cells: U937 cells carry endogenous VLA-4; The partner hVCAM-1(1-3)-IgG was made in house in transfected COS cells (ATCC CRL1651) and used as culture supernatant
T1 sequence (P13612 34-1032): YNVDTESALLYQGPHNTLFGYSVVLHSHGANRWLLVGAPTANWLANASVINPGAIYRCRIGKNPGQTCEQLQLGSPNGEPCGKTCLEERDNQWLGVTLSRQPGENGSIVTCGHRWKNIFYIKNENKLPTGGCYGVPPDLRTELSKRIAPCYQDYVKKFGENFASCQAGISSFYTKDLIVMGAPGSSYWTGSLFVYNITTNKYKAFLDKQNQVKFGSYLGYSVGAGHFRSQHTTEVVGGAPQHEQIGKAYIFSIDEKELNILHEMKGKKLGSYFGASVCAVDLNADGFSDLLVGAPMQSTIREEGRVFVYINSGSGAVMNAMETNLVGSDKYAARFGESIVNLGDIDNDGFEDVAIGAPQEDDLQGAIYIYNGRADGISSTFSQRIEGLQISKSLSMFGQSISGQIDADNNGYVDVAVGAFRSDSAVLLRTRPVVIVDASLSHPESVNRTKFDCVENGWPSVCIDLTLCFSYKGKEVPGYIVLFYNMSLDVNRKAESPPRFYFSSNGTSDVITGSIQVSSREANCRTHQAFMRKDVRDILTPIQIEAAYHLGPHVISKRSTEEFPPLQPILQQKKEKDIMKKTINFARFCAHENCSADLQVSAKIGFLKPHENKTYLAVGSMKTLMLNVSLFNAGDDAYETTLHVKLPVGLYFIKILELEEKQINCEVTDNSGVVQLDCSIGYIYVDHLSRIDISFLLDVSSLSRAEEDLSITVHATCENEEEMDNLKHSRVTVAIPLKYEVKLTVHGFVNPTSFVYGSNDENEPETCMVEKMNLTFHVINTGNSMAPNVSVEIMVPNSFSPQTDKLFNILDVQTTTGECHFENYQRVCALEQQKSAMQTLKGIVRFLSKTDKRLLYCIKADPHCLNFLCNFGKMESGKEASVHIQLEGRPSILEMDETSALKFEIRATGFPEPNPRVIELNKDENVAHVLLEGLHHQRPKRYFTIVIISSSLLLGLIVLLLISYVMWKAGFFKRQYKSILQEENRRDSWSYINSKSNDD
T1 sequence (P05556 21-798): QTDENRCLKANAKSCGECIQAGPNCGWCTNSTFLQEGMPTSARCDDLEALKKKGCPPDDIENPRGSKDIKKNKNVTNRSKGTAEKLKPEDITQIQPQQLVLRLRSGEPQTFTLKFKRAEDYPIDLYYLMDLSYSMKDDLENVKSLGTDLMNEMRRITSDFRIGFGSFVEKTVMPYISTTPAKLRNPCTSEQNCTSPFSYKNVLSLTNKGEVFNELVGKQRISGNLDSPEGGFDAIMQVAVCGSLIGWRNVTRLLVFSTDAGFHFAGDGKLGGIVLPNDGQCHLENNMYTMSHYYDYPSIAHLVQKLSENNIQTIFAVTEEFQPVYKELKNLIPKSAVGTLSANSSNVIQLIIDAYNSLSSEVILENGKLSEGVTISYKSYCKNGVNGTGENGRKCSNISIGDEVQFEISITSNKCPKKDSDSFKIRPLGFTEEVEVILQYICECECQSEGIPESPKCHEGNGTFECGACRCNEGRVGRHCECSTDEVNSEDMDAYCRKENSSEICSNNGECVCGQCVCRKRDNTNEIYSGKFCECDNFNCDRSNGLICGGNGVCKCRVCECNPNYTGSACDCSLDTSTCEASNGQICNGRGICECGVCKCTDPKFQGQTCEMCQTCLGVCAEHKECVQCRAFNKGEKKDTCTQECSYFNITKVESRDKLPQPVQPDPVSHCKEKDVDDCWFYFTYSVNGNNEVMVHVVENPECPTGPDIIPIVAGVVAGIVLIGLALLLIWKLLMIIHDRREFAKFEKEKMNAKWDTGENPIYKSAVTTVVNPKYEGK
Put plainly: U937/VCAM-1 cell adhesion test (adhesion of U937 cells to hVCAM-1(1-3)-IgG). The format is cell-based. The note with it: concentration leading to 50% inhibition of adhesion of human U937 cells (ATCC CRL 1593) to hVCAM-1(1-3)-IgG. The source says: The test method used for the activity of the compounds of the formula I on the interaction between VCAM-1 and VLA-4 is the assay described below which is specific for this interaction. The cellular binding components, i.e., the VLA-4 integrins, are supplied in their natural form as surface molecules on human U937 cells (ATCC CRL 1593). which belong to the leucocytes group. The specific binding components used are genetically engineered recombinant soluble fusion proteins, consisting of the extracytoplasmatic domain of human VCAM-1 and the constant region of a human immunoglobulin of the subclass IgG1.
Assay for the Measurement of the Adhesion of U937 Cells (ATCC CRL 1593) to hVCAM-1(1-3)-IgG
1. Preparation of Human VCAM-1 (1-3)-IgG and Human CD4-IgG
A genetic construct for the expression of the extracellular domain of human VCAM-1, associated with the genetic sequence of the heavy chain of human immunoglobulin IgG1 (hinge, CH2 and CH3 regions), from Dr. Brian Seed, Massachusetts General Hospital. Boston, USA was employed (cf. Damle and Aruffo, Proc. Natl. Acad. Sci. USA 1991, 88, 6403-6407). The soluble fusion protein hVCAM-1(1-3)-IgG contained the three amino-terminal extracellular immunoglobulin-like domains of human VCAM-1 (Damle and Aruffo, Proc. Natl. Acad. Sci. USA 1991, 88, 6403-6407). CD4-IgG (Zettimeissl et al., DNA and Cell Biology 1990, 9, 347) served as a fusion protein for negative controls. The recombinant proteins were expressed as soluble proteins after DEAE/dextran-mediated DNA transfection in COS cells (ATCC CRL1651) according to standard procedures (Ausubel et al., Current Protocols in Molecular Biology, John Wiley & Sons, Inc., 1994).
2. Assay for the Measurement of the Adhesion of U937 Cells to hVCAM-1 (1-3)-IgG
2.1 96-well microtiter test plates (Nunc Maxisorb) were incubated at room temperature for 1 hour with 100 μl/well of a goat-anti-human IgG antibody solution (10 μg/ml in 50 mM tris, pH 9.5). After removal of the antibody solution, washing was carried out once with PBS.
2.2 150 μl/well of a blocking buffer (1% BSA in PBS) were incubated on the plates at room temperature for 0.5 hour. After removal of the blocking buffer, washing was carried out once with PBS.
2.3 100 μl per well of a cell culture supernatant of transfected COS cells were incubated on the plates at room temperature for 1.5 hours. The COS cells were transfected with a plasmid which codes for the three N-terminal immunoglobulin-like domains of VCAM-1, coupled to the Fc part of human IgG1 (hVCAM-1 (1-3)-IgG). The content of hVCAM-1 (1-3)-IgG was about 0.5-1 μg/ml. After removal of the culture supernatant, washing was carried out once with PBS.
2.4 The plates were incubated at room temperature for 20 minutes with 100 μl/well of Fc receptor blocking buffer (1 mg/ml of γ-globulin, 100 mM NaCl, 100 μM MgCl2, 100 μM MnCl2, 100 μM CaCl2, 1 mg/ml of BSA in 50 mM HEPES, pH 7.5). After removal of the Fc receptor blocking buffer, washing was carried out once with PBS.
2.5 20 μl of binding buffer (100 mM NaCl, 100 μM MgCl2, 100 μM MnCl2, 100 μM CaCl2, 1 mg/ml of BSA in 50 mM HEPES, pH 7.5) were initially introduced, and the substances to be tested were added in 10 μl of binding buffer and incubated for 20 minutes. The controls used were antibodies against VCAM-1 (BBT, No. BBA6) and against VLA-4 (immunotech, No. 0764).
2.6 U937 cells were incubated in Fc receptor blocking buffer for 20 minutes and then added by pipette in a concentration of 1×10^6/ml and in an amount of 100 μl per well ([…]).
2.7 The plates were slowly immersed at an angle of 45° in stop buffer (100 mM NaCl, 100 μM MgCl2, 100 μM MnCl2, 100 μM CaCl2 in 25 mM tris, pH 7.5) and shaken off. The process was repeated.
2.8 50 μl/well of a dye solution (16.7 μg/ml of Hoechst Dye 33258, 4% formaldehyde, 0.5% triton X-100 in PBS) were then incubated on the plates for 15 minutes. […]
As for `CC(C)CC(C(=O)N[C@@H](CC(=O)O)C(=O)N[C@H](C(=O)O)c1ccccc1)N1C(=O)N(Cc2ccc(NC(=O)Nc3ccccc3)cc2)C(C)(c2ccccc2)C1=O` (mixture of isomers) [Example 1, ((RS)-2-((RS)-4-Phenyl-3-(4-(3-phenylureido)benzyl)-4-methyl-2,5-dioxoimidazolidin-1-yl)-2-(2-methylpropyl)acetyl)-L-aspartyl-L-phenylglycine], it took 0.004 µM to reach half-maximal inhibition (IC50).

As to `COc1ccc([C@H](CC(=O)O)NC(=O)C(CC(C)C)N2C(=O)N(Cc3ccc(NC(=O)Nc4ccccc4C)cc3)C(C)(c3ccccc3)C2=O)c(OC)c1` (mixture of isomers) [Example 189, (S)-3-((RS)-2-((RS)-4-Methyl-4-phenyl-3-(4-(3-(2-methylphenyl)ureido)benzyl)-2,5-dioxoimidazolidin-1-yl)-2-(2-methylpropyl)acetylamino)-3-(2,4-dimethoxyphenyl)propionic Acid], half-maximal inhibition (IC50) was put at 0.05 µM.

In the case of `Cc1ccccc1NC(=O)Nc1ccc(CN2C(=O)N([C@@H](CC(C)C)C(=O)NC(CC(=O)O)c3ccccc3)C(=O)C2(C)C)cc1` (mixture of isomers) [Example 196, (RS)-3-((S)-2-(4,4-Dimethyl-3-(4-(3-(2-methylphenyl)ureido)benzyl)-2,5-dioxoimidazolidin-1-yl)-2-(2-methylpropyl)acetylamino)-3-phenylpropionic Acid], 0.025 µM corresponded to half-maximal inhibition (IC50).

For `CCCCS(=O)(=O)NC(CNC(=O)C(CC(C)C)N1C(=O)N(Cc2ccc(NC(=O)Nc3ccccc3C)cc2)C(C)(c2ccccc2)C1=O)C(=O)O` (racemic) [Example 195, (RS)-2-Butylsulfonylamino-3-((RS)-2-((RS)-4-methyl-4-phenyl-3-(4-(3-(2-methyl-phenyl)ureido)benzyl)-2,5-dioxoimidazolidin-1-yl)-2-(2-methylpropyl)acetylamino)propionic Acid], the midpoint of inhibition, the IC50, lay at 0.023 µM.

With `Cc1ccccc1NC(=O)Nc1ccc(CN2C(=O)N(C(CC(C)C)C(=O)N[C@@H](CC(=O)O)C(=O)N[C@H](C(=O)OC(C)(C)C)c3ccccc3)C(=O)C2(C)c2ccccc2)cc1` (mixture of isomers) [Example 219], 0.175 µM corresponded to half-maximal inhibition (IC50).

For `CC(C)C[C@@H](C(=O)N[C@@H](CC(=O)O)c1ccc2c(c1)OCO2)N1C(=O)N(Cc2ccc(NC(=O)Nc3ccccc3)cc2)C(C)(C)C1=O` [Example 5, (S)-3-((S)-2-(4,4-Dimethyl-3-(4-(3-phenylureido)benzyl)-2,5-dioxoimidazolidin-1-yl)-2-(2-methylpropyl)acetylamino)-3-(3,4-methylenedioxyphenyl)propionic Acid], the IC50 (as a rule, the concentration at which inhibition is half-maximal) amounted to 0.005 µM.

For `CC(C)C[C@@H](C(=O)N[C@H](C)CC(=O)O)N1C(=O)N(Cc2ccc(NC(=O)Nc3ccccc3)cc2)C(C)(C)C1=O` [Example 6, (R)-3-((S)-2-(4,4-Dimethyl-3-(4-(3-phenylureido)benzyl)2,5-dioxoimidazolidin-1-yl)-2-(2-methylpropyl)acetylamino)-3-methylpropionic Acid], the half-inhibitory concentration (IC50) was 0.03 µM.

For `Cc1ccccc1NC(=O)Nc1ccc(CN2C(=O)N([C@@H](CC(C)C)C(=O)N[C@@H](CC(=O)O)c3ccc4c(c3)OCO4)C(=O)C2(C)C)cc1` [Example 7, (S)-3-((S)-2-(4,4-Dimethyl-3-(4-(3-(2-methylphenyl)ureido)benzyl)-2,5-dioxoimidazolidin-1-yl)-(2-methylpropyl)acetylamino)-3-(3,4-methylenedioxyphenyl)propionic Acid], the IC50 was found to be 0.0025 µM.

`Cc1ccccc1NC(=O)Nc1ccc(CN2C(=O)N([C@@H](CC(C)C)C(=O)N[C@H](C)CC(=O)O)C(=O)C2(C)C)cc1` [Example 8, (R)-3-((S)-2-(4,4-Dimethyl-3-(4-(3-(2-methylphenyl)ureido)benzyl)-2,5-dioxoimidazolidin-1-yl)-2-(2-methylpropyl)acetylamino)-3-methylpropionic Acid] registered a half-maximal inhibitory concentration (IC50) of 0.0038 µM.

Compound `Cc1ccccc1NC(=O)Nc1ccc(CN2C(=O)N(CC(=O)N[C@H](C)CC(=O)O)C(=O)C2(C)C)cc1` [Example 9, (R)-3-(2-(4,4-Dimethyl-3-(4-(3-(2-methylphenyl)ureido)benzyl)-2,5-dioxoimidazolidin-1-yl)acetylamino)-3-methylpropionic Acid] showed a half-maximal inhibitory concentration (IC50) of 0.02 µM.

Take `Cc1ccccc1NC(=O)Nc1ccc(CN2C(=O)N([C@@H](CC(C)C)C(=O)NCC(=O)O)C(=O)C2(C)C)cc1` [Example 10, 2-((S)-2-(4,4-Dimethyl-3-(4-(3-(2-methylphenyl)ureido)benzyl)-2,5-dioxoimidazolidin-1-yl)-2-(2-methylpropyl)acetylamino)acetic Acid]: the concentration for half-maximal inhibition (IC50) is 0.6 µM.

In turn, `Cc1ccccc1NC(=O)Nc1ccc(CN2C(=O)N(CC(=O)N[C@@H](CC(=O)O)c3ccccc3)C(=O)C2(C)C)cc1` [Example 11, (S)-3-(2-(4,4-Dimethyl-3-(4-(3-(2-methylphenyl)ureido)benzyl)2,5-dioxoimidazolidin-1-yl)acetylamino)-3-phenylpropionic Acid] returned an IC50 of 0.01 µM.

`Cc1ccccc1NC(=O)Nc1ccc(CN2C(=O)N(CC(=O)NCCC(=O)O)C(=O)C2(C)C)cc1` [Example 15, 3-(2-(4,4-Dimethyl-3-(4-(3-(2-methylphenyl)ureido)benzyl)-2,5-dioxoimidazolidin-1-yl)acetylamino)propionic Acid] displayed a 50% inhibitory concentration (IC50) of 0.03 µM.

The compound `Cc1ccccc1NC(=O)Nc1ccc(CN2C(=O)N([C@@H](CC(C)C)C(=O)NCCC(=O)O)C(=O)C2(C)C)cc1` [Example 16, 3-((S)-2-(4,4-Dimethyl-3-(4-(3-(2-methylphenyl)ureido)benzyl)-2,5-dioxoimidazolidin-1-yl)-2-(2-methylpropyl)acetylamino)propionic Acid] returned an IC50 of 0.055 µM.

`Cc1ccccc1NC(=O)Nc1ccc(CN2C(=O)N([C@@H](CC(C)C)C(=O)N[C@@H](CC(=O)O)c3ccccc3)C(=O)C2(C)C)cc1` [Example 17, (S)-3-((S)-2-(4,4-Dimethyl-3-(4-(3-(2-methylphenyl)ureido)benzyl)-2,5-dioxoimidazolidin-1-yl)-2-(2-methylpropyl)acetylamino)-3-phenylpropionic Acid] displayed an IC50 of 0.0015 µM.

For the compound `CC(C)C[C@@H](C(=O)N[C@@H](CC(=O)O)c1ccccc1)N1C(=O)N(Cc2ccc(NC(=O)Nc3ccccc3)cc2)C(C)(C)C1=O` [Example 19], the IC50 was found to be 0.003 µM.

`Cc1ccccc1NC(=O)Nc1ccc(CN2CC(=O)N(CC(=O)N(C)[C@@H](CC(=O)O)C(=O)NC3C4CC5CC(C4)CC3C5)C2=O)cc1` (stereo partly drawn) [Example 20]: the concentration for half-maximal inhibition (IC50) turned out to be 0.16 µM.

As to `Cc1ccccc1NC(=O)Nc1ccc(CN2CC(=O)N(CC(=O)N[C@@H](CC(=O)O)C(=O)NC3C4CC5CC(C4)CC3C5)C2=O)cc1` (stereo partly drawn) [Example 21], the IC50 is 0.52 µM.

(Values after patent publication US6521654B2, “Substituted imidazolidine derivatives, their preparation, their use and pharmaceutical preparations including them” (Aventis Pharma Deutschland GmbH, priority 1997, dated 2003).)
